Assay results taken from US6355799B1, “Substituted benzene compounds, process for their preparation, and herbicidal and defoliant compositions containing them” (ISK Americas Incorporated, priority 1997, dated 2002).

What was measured:
[1] = tested on: field corn (Zea mays L., var. Dekalb 535, CORN); assay: Pre-emerge test, crop safety; assay type: in vivo; conditions: pre-emerge, 14 days after application, rating scale 0-100
How it was run: (§1)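 Rating: 0–100 visual injury, 14 DAA. Application: acetone, 187 l/ha, 15–1000 g ai/ha, flat-fan track sprayer with nozzle 40–45 cm above soil or canopy. Post-emerge runs used 0.25% v/v surfactant on 2–3 leaf plants.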

[2] = tested on: upland rice (Oryza sp., var. Tebonnet, RICE); assay: Pre-emerge test, crop safety; assay type: in vivo; conditions: pre-emerge, 14 days after application, rating scale 0-100
How it was run: as §1

[3] = tested on: redroot pigweed (Amaranthus retroflexus, AMARE); assay: Pre-emerge test, greenhouse herbicide activity screening; assay type: in vivo; conditions: pre-emerge, 14 days after application, rating scale 0-100
How it was run: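 Visual ratings on a 0-100 scale (0 no damage, 100 all plants dead) were taken at 14 days after treatment. Rates of 15-1000 g ai/ha in acetone, 187 l/ha, were sprayed onto soil one day after planting (pre-emerge) or onto 2-3 leaf plants with 0.25% v/v surfactant (post-emerge).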

[4] = tested on: lambsquarters (Chenopodium album, CHEAL); assay: as above; assay type: in vivo; conditions: pre-emerge, 14 days after application, rating scale 0-100
How it was run: (§2)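 Applied at 15–1000 g ai/ha from acetone in 187 l/ha spray volume. Post-emergence applications included 0.25% v/v non-ionic surfactant and reached plants sown 8–21 days before. Pre-emergence applications were incorporated by surface watering. Efficacy or crop damage was rated on a 0–100 scale after 14 days.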

[5] = tested on: cocklebur (Xanthium strumarium, XANST); assay: as above; assay type: in vivo; conditions: 14 days after application, rating scale 0-100
[6] = tested on: velvetleaf (Abutilon theophrasti, ABUTH); assay: as above; assay type: in vivo; conditions: pre-emerge, 14 days after application, rating scale 0-100
How it was run: as §2

[7] = tested on: barnyardgrass (Echinochloa crus-galli, ECHCG); assay: as above; assay type: in vivo; conditions: pre-emerge, 14 days after application, rating scale 0-100
How it was run: as §2

[8] = tested on: green foxtail (Setaria viridis, SETVI); assay: as above; assay type: in vivo; conditions: pre-emerge, 14 days after application, rating scale 0-100
How it was run: as §2

[9] = tested on: large crabgrass (Digitaria sanguinalis, DIGSA); assay: as above; assay type: in vivo; conditions: pre-emerge, 14 days after application, rating scale 0-100
How it was run: as §2

[10] = tested on: ivyleaf morningglory (Ipomoea hederacea, IPOHE); assay: as above; assay type: in vivo; conditions: pre-emerge, 14 days after application, rating scale 0-100
How it was run: as §2

[11] = tested on: johnsongrass (Sorghum halepense, SORHA); assay: as above; assay type: in vivo; conditions: pre-emerge, 14 days after application, rating scale 0-100
How it was run: as §2

[12] = tested on: sicklepod (Cassia obtusifolia, CASOB); assay: as above; assay type: in vivo; conditions: pre-emerge, 14 days after application, rating scale 0-100
How it was run: as §2

In the case of `COc1c(Cl)cc(F)c(-n2ncc(C(F)(F)F)cc2=O)c1N` [Compound 11-4, 2-(2-amino-4-chloro-6-fluoro-3-methoxyphenyl)-5-trifluoromethylpyridazin-3-one], the melting point is reported as 156 to 157 °C.
In the case of `O=c1cc(C(F)(F)F)[nH]c(=O)n1-c1c(Cl)cc(C(F)(F)F)cc1Cl` [compound 2, reference compound], the “phytotoxicity rating MAIZE” value ([1]; 3.9 g ai/ha) is reported as 0, the “phytotoxicity rating MAIZE” value ([1]; 7.8 g ai/ha) is reported as 0 and the “phytotoxicity rating MAIZE” value ([1]; 15.6 g ai/ha) is reported as 0. For the same molecule, the “phytotoxicity rating MAIZE” value ([1]; 31.3 g ai/ha) was 0, the “phytotoxicity rating MAIZE” value ([1]; 62.5 g ai/ha) was 0 and the “phytotoxicity rating MAIZE” value ([1]; 125 g ai/ha) was 0. The “phytotoxicity rating MAIZE” value ([1]; 250 g ai/ha) was 0, the “phytotoxicity rating RICE” value ([2]; 3.9 g ai/ha) was 0 and the “phytotoxicity rating RICE” value ([2]; 7.8 g ai/ha) was 0. For the same molecule, the “phytotoxicity rating RICE” value ([2]; 15.6 g ai/ha) was 0, the “phytotoxicity rating RICE” value ([2]; 31.3 g ai/ha) was 0 and the “phytotoxicity rating RICE” value ([2]; 62.5 g ai/ha) was 0. The “phytotoxicity rating RICE” value ([2]; 125 g ai/ha) was 0, the “phytotoxicity rating RICE” value ([2]; 250 g ai/ha) was 15 and the “phytotoxicity rating AMARE” value ([3]; 3.9 g ai/ha) was 0. For the same molecule, the “phytotoxicity rating AMARE” value ([3]; 7.8 g ai/ha) was 0, the “phytotoxicity rating AMARE” value ([3]; 15.6 g ai/ha) was 0 and the “phytotoxicity rating AMARE” value ([3]; 31.3 g ai/ha) was 0. The “phytotoxicity rating AMARE” value ([3]; 62.5 g ai/ha) was 0, the “phytotoxicity rating AMARE” value ([3]; 125 g ai/ha) was 0 and the “phytotoxicity rating AMARE” value ([3]; 250 g ai/ha) was 0. The “phytotoxicity rating CHEAL” value ([4]; 3.9 g ai/ha) was 0, the “phytotoxicity rating CHEAL” value ([4]; 7.8 g ai/ha) was 0 and the “phytotoxicity rating CHEAL” value ([4]; 15.6 g ai/ha) was 0. The “phytotoxicity rating CHEAL” value ([4]; 31.3 g ai/ha) was 0, the “phytotoxicity rating CHEAL” value ([4]; 62.5 g ai/ha) was 0 and the “phytotoxicity rating CHEAL” value ([4]; 125 g ai/ha) was 30. The “phytotoxicity rating CHEAL” value ([4]; 250 g ai/ha) was 50, the “phytotoxicity rating XANST” value ([5]; 3.9 g ai/ha) was 0 and the “phytotoxicity rating XANST” value ([5]; 7.8 g ai/ha) was 0. For the same molecule, the “phytotoxicity rating XANST” value ([5]; 15.6 g ai/ha) was 0, the “phytotoxicity rating XANST” value ([5]; 31.3 g ai/ha) was 0 and the “phytotoxicity rating XANST” value ([5]; 62.5 g ai/ha) was 0. For the same molecule, the “phytotoxicity rating XANST” value ([5]; 125 g ai/ha) was 0, the “phytotoxicity rating XANST” value ([5]; 250 g ai/ha) was 60 and the “phytotoxicity rating ABUTH” value ([6]; 3.9 g ai/ha) was 0. The “phytotoxicity rating ABUTH” value ([6]; 7.8 g ai/ha) was 0, the “phytotoxicity rating ABUTH” value ([6]; 15.6 g ai/ha) was 0 and the “phytotoxicity rating ABUTH” value ([6]; 31.3 g ai/ha) was 0. For the same molecule, the “phytotoxicity rating ABUTH” value ([6]; 62.5 g ai/ha) was 0, the “phytotoxicity rating ABUTH” value ([6]; 125 g ai/ha) was 0 and the “phytotoxicity rating ABUTH” value ([6]; 250 g ai/ha) was 50. For the same molecule, the “phytotoxicity rating ECHCG” value ([7]; 3.9 g ai/ha) was 0, the “phytotoxicity rating ECHCG” value ([7]; 7.8 g ai/ha) was 0 and the “phytotoxicity rating ECHCG” value ([7]; 15.6 g ai/ha) was 0. For the same molecule, the “phytotoxicity rating ECHCG” value ([7]; 31.3 g ai/ha) was 0, the “phytotoxicity rating ECHCG” value ([7]; 62.5 g ai/ha) was 0 and the “phytotoxicity rating ECHCG” value ([7]; 125 g ai/ha) was 0. The “phytotoxicity rating ECHCG” value ([7]; 250 g ai/ha) was 0, the “phytotoxicity rating SETVI” value ([8]; 3.9 g ai/ha) was 0 and the “phytotoxicity rating SETVI” value ([8]; 7.8 g ai/ha) was 0. For the same molecule, the “phytotoxicity rating SETVI” value ([8]; 15.6 g ai/ha) was 0, the “phytotoxicity rating SETVI” value ([8]; 31.3 g ai/ha) was 0 and the “phytotoxicity rating SETVI” value ([8]; 62.5 g ai/ha) was 0. For the same molecule, the “phytotoxicity rating SETVI” value ([8]; 125 g ai/ha) was 0, the “phytotoxicity rating SETVI” value ([8]; 250 g ai/ha) was 0 and the “phytotoxicity rating DIGSA” value ([9]; 3.9 g ai/ha) was 0. For the same molecule, the “phytotoxicity rating DIGSA” value ([9]; 7.8 g ai/ha) was 0, the “phytotoxicity rating DIGSA” value ([9]; 15.6 g ai/ha) was 0 and the “phytotoxicity rating DIGSA” value ([9]; 31.3 g ai/ha) was 0. For the same molecule, the “phytotoxicity rating DIGSA” value ([9]; 62.5 g ai/ha) was 0, the “phytotoxicity rating DIGSA” value ([9]; 125 g ai/ha) was 0 and the “phytotoxicity rating DIGSA” value ([9]; 250 g ai/ha) was 0. The “phytotoxicity rating IPOHE” value ([10]; 3.9 g ai/ha) was 0, the “phytotoxicity rating IPOHE” value ([10]; 7.8 g ai/ha) was 0 and the “phytotoxicity rating IPOHE” value ([10]; 15.6 g ai/ha) was 0. The “phytotoxicity rating IPOHE” value ([10]; 31.3 g ai/ha) was 0, the “phytotoxicity rating IPOHE” value ([10]; 62.5 g ai/ha) was 0 and the “phytotoxicity rating IPOHE” value ([10]; 125 g ai/ha) was 0. The “phytotoxicity rating IPOHE” value ([10]; 250 g ai/ha) was 0, the “phytotoxicity rating SORHA” value ([11]; 3.9 g ai/ha) was 0 and the “phytotoxicity rating SORHA” value ([11]; 7.8 g ai/ha) was 0. For the same molecule, the “phytotoxicity rating SORHA” value ([11]; 15.6 g ai/ha) was 0, the “phytotoxicity rating SORHA” value ([11]; 31.3 g ai/ha) was 0 and the “phytotoxicity rating SORHA” value ([11]; 62.5 g ai/ha) was 0. For the same molecule, the “phytotoxicity rating SORHA” value ([11]; 125 g ai/ha) was 0, the “phytotoxicity rating SORHA” value ([11]; 250 g ai/ha) was 0 and the “phytotoxicity rating CASOB” value ([12]; 3.9 g ai/ha) was 0. For the same molecule, the “phytotoxicity rating CASOB” value ([12]; 7.8 g ai/ha) was 0, the “phytotoxicity rating CASOB” value ([12]; 15.6 g ai/ha) was 0 and the “phytotoxicity rating CASOB” value ([12]; 31.3 g ai/ha) was 0. For the same molecule, the “phytotoxicity rating CASOB” value ([12]; 62.5 g ai/ha) was 0, the “phytotoxicity rating CASOB” value ([12]; 125 g ai/ha) was 30 and the “phytotoxicity rating CASOB” value ([12]; 250 g ai/ha) was 50.
